Source: paper PMC8151276, “An Integrated Approach toward NanoBRET Tracers for Analysis of GPCR Ligand Engagement” (Molecules, 2021)

Assays:
Type in all cases: binding
CCR9 = target: T1, CCR9 (Homo sapiens, UniProt P51686); assay: NanoBRET screen HiBiT-CCR9 in HEK293
T1 construct: purchased Promega (in-house HiBiT-GPCR construct library, NanoBRET)
T1 sequence (P51686 1-369): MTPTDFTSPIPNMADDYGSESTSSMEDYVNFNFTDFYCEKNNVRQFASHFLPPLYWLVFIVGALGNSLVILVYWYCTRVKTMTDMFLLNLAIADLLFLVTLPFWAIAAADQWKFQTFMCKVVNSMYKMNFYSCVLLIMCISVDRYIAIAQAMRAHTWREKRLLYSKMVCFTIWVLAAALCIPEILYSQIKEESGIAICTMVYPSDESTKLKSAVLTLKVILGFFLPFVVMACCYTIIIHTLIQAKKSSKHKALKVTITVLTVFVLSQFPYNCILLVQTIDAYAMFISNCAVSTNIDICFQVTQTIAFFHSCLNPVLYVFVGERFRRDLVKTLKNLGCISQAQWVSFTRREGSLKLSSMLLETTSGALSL
Method: (§1) Each tracer candidate was screened across the entire library of HiBiT-GPCR constructs using NanoBRET as the detection modality. As depicted in Figure 4A, the specificity of interactions was evaluated through decrease in BRET due to competitive displacement of a bound tracer by excess parental compound. Each tracer was analyzed for binding to each HiBiT-GPCR fusion in the absence and in the presence of competing parental compound. Briefly, HEK293 cells were transfected with HiBiT-GPCR constructs diluted into promoterless DNA to reduce expression and maximize translocation to the cell surface. Each tracer candidate was then screened at concentrations of 1 μM and 0.1 μM across cells expressing these fusions. Cells were treated for 1.5 h with tracer either alone or in the presence of 20 μM competing parental compound (i.e., control). BRET was measured upon addition of purified LgBiT and subsequent complementation with HiBiT genetically fused to a GPCR. The specificity of interactions was assessed through a decrease in BRET signal due to competitive displacement of the bound tracer. To further gauge the robustness of these interactions, the fold response over the control (i.e., BRETtracer/BRETcontrol) was calculated. We chose a 1.5-fold response, which translates to ≥7-fold signal over noise as the minimal threshold required to score an interaction as positive. […]. Below we highlight the screening results obtained for our exemplary fluorescent tracers based on Clozapine, Amitriptyline and AZD1283.
(§2) HiBiT-GPCR DNA constructs were diluted in 10 mM Tris pH 8 to a final concentration of 0.01 μg/μL, arrayed in 96-well plates and stored at −20 °C. For transfection, HEK293 cells were suspended in Opti-MEM (without phenol red) supplemented with 2% fetal bovine serum (Seradigm) and 100 units/mL penicillin–streptomycin (Gibco) at a final concentration of 220,000 cells/mL and dispensed into white 96-well plates at 90 μL/well. Subsequent transfections and screens were carried using an Agilent Bravo Automated Liquid Handling Platform. First, the 96-well HiBiT DNA arrays were diluted 25-fold in Opti-MEM (without serum or phenol red) to a final concentration of 0.0004 μg/μL and 20 μL of the diluted DNAs were transferred into new 96-well plates. Next, promoterless carrier DNA (1 μg/μL) was diluted 25-fold (0.04 μg/μL) and then dispensed into the diluted arrays at 20 μL/well. Following brief mixing, Viafect transfection reagent (Promega) diluted 16-fold into Opti-MEM was dispensed into the plates at 40 μL/well. After mixing by pipetting, plates were incubated for 10 min on the pipetting station deck. The DNA-transfection reagent complexes were then added to plates containing cells. To facilitate the screen, 10 μL of DNA-transfection reagent complexes were added in duplicates to the top 4 and bottom 4 rows, resulting in two identical 48-well arrays per plate. Plates with transfected cells were incubated for 18–20 h at 37 °C/5% CO2. A screen of each tracer across the entire library using two different concentrations requires duplicate plates of transfected cells. Depending on the number of tracers being screened, transfections can be scaled up using the same ratios. The next day, for each tracer, four 20× screening solutions in tracer dilution buffer (Promega) were prepared: two duplicates at final concentration of 20 μM and two duplicates at a final concentration of 2 μM. A competing unmodified compound was added to one of each duplicate at a final concentration of 400 μM. The four resulting solutions were diluted 4-fold in Opti-MEM without serum or phenol red to generate 5× solutions (5 µM and 0.5 µM tracer +/− 100 μM competing compound). To screen the library, a BioTek MultiFlo FX liquid dispenser was used to dispense 22.5 µL of tracer solution to the top 4 rows and 22.5 µL tracer + competing compound solution to the 4 bottom rows. Plates were briefly mixed on an orbital shaker and incubated for 1.5 h at room temperature. […]

P2RY13 = target: T2, P2RY13 (Homo sapiens, UniProt Q9BPV8); assay: NanoBRET screen HiBiT-P2RY13 in HEK293
T2 construct: purchased Promega (in-house HiBiT-GPCR construct library, NanoBRET)
T2 sequence (Q9BPV8 1-354): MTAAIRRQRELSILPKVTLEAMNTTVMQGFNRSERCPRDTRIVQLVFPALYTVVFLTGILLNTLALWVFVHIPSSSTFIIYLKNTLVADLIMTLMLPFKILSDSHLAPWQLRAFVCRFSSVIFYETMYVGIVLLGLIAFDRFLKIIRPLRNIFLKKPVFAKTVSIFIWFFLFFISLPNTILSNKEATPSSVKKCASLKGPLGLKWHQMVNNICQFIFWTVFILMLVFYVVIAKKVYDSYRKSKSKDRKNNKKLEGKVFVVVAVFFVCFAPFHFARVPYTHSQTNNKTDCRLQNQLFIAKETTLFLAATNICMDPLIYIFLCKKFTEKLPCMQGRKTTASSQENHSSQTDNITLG
Method: as §1, §2

TBXA2R = target: T3, TBXA2R (Homo sapiens, UniProt P21731); assay: NanoBRET screen HiBiT-TBXA2R in HEK293
T3 construct: purchased Promega (in-house HiBiT-GPCR construct library, NanoBRET)
T3 sequence (P21731 1-343): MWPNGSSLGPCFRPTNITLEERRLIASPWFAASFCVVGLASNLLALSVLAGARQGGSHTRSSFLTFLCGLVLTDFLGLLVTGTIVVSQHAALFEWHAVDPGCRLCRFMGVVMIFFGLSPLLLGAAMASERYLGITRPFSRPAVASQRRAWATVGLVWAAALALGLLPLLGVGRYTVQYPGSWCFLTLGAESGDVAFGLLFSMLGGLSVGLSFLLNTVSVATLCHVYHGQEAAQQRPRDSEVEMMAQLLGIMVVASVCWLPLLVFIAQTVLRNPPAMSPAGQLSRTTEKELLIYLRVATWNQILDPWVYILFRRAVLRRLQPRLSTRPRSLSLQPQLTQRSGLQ
Method: as §1, §2

Compound | NanoBRET Fold Response (CCR9; CCR9, tracer 0.1μM) | NanoBRET Fold Response (CCR9; CCR9, tracer 1μM) | NanoBRET Fold Response (P2RY13; P2RY13, tracer 0.1μM) | NanoBRET Fold Response (P2RY13; P2RY13, tracer 1μM) | NanoBRET Fold Response (TBXA2R; TBXA2R, tracer 0.1μM) | NanoBRET Fold Response (TBXA2R; TBXA2R, tracer 1μM) | further results
COc1ccc2c(n1)c(CCNC(C)=O)cn2CCNC(=O)CCc1ccc2n1[B-](F)(F)[N+]1=C(c3ccc[nH]3)C=CC1=C2 [Azamelatonin-1-NB590] | – | – | – | – | – | – | NanoBRET Fold Response (CCR9; 0.1μM tracer): 1.05; NanoBRET Fold Response (CCR9; 1μM tracer): 1.04; NanoBRET Fold Response (P2RY13; 0.1μM tracer): 1.08; NanoBRET Fold Response (P2RY13; 1μM tracer): 1.08; NanoBRET Fold Response (TBXA2R; 0.1μM tracer): 0.84; NanoBRET Fold Response (TBXA2R; 1μM tracer): 0.94
CC(C)N(CC[C@H](c1ccccc1)c1cc(CCNC(=O)c2ccc(CNC(=O)CCc3ccc4n3[B-](F)(F)[N+]3=C(c5ccc[nH]5)C=CC3=C4)cc2)ccc1O)C(C)C [Tolterodine-BZ-NB590] | 0.74 | 1.14 | 0.89 | 0.94 | 0.91 | 1.03 | –
O=C(CCc1ccc2n1[B-](F)(F)[N+]1=C(c3ccc[nH]3)C=CC1=C2)NCCOCCOCCNC(=O)OCCOCCN1CCN(C2=Nc3ccccc3Sc3ccccc32)CC1 [Quetiapine-a-2-NB590] | 1.05 | 0.96 | 0.98 | 0.95 | 1.01 | 1.05 | –
Cc1cc2c(s1)Nc1ccccc1N=C2N1CCN(CCCNC(=O)CCOCCOCCOCCOCCNC(=O)CCc2ccc3n2[B-](F)(F)[N+]2=C(c4ccc[nH]4)C=CC2=C3)CC1 [Olanzapine-a-2-NB590] | 1.03 | 1.17 | 1.09 | 0.86 | 0.95 | 1.02 | –
O=C(CCc1ccc2n1[B-](F)(F)[N+]1=C(c3ccc[nH]3)C=CC1=C2)NCc1ccc(C(=O)NCCOCCOCCNCC(O)COc2cccc3ccccc23)cc1 (centres unmarked) [Propranolol-3-NB590] | – | – | – | – | – | – | NanoBRET Fold Response (CCR9; CCR9, 0.1μM): 1.08; NanoBRET Fold Response (CCR9; CCR9, 1μM): 1.00; NanoBRET Fold Response (P2RY13; P2RY13, 0.1μM): 0.90; NanoBRET Fold Response (P2RY13; P2RY13, 1μM): 0.97; NanoBRET Fold Response (TBXA2R; TBXA2R, 0.1μM): 0.97; NanoBRET Fold Response (TBXA2R; TBXA2R, 1μM): 1.09
CN1CCN(C2=Nc3cc(Cl)ccc3N(CC(=O)NCCOCCOCCOCCOCCNC(=O)CCc3ccc4n3[B-](F)(F)[N+]3=C(c5ccc[nH]5)C=CC3=C4)c3ccccc32)CC1 [Clozapine-c-2-NB590] | – | – | – | – | – | – | NanoBRET Fold Response (CCR9; CCR9, 0.1μM tracer): 1.02; NanoBRET Fold Response (CCR9; CCR9, 1μM tracer): 0.87; NanoBRET Fold Response (P2RY13; P2RY13, 0.1μM tracer): 0.99; NanoBRET Fold Response (P2RY13; P2RY13, 1μM tracer): 0.99; NanoBRET Fold Response (TBXA2R; TBXA2R, 0.1μM tracer): 1.03; NanoBRET Fold Response (TBXA2R; TBXA2R, 1μM tracer): 0.95
O=C(CCc1ccc2n1[B-](F)(F)[N+]1=C(c3ccc[nH]3)C=CC1=C2)NCc1ccc(C(=O)NCCOCCC(=O)N[C@@H]2CC[C@@]3(O)[C@H]4Cc5ccc(O)c6c5[C@@]3(CCN4CC3CC3)[C@H]2O6)cc1 [Naltrexone-3-NB590] | 0.55 | 0.92 | 0.62 | 0.92 | 1.24 | 1.13 | –
CC(C)N(CC[C@H](c1ccccc1)c1cc(CCNC(=O)CCOCCOCCOCCOCCNC(=O)CCc2ccc3n2[B-](F)(F)[N+]2=C(c4ccc[nH]4)C=CC2=C3)ccc1O)C(C)C [Tolterodine-2-NB590] | 1.12 | 0.95 | 1.26 | 1.28 | 0.79 | 1.01 | –
Cc1nc2n(c(=O)c1CCN1CCC(c3noc4cc(F)ccc34)CC1)CCCC2OC(=O)NCCOCCOCCOCCOCCNC(=O)CCc1ccc2n1[B-](F)(F)[N+]1=C(c3ccc[nH]3)C=CC1=C2 (centres unmarked) [Risperidone-2-NB590] | 1.02 | 0.94 | 1.03 | 0.90 | 0.93 | 1.01 | –
O=C(CCOCCOCCOCCOCCNC(=O)CCc1ccc2n1[B-](F)(F)[N+]1=C(c3ccc[nH]3)C=CC1=C2)NCCCN1CCN(C2=Nc3cc(Cl)ccc3Nc3ccccc32)CC1 [Clozapine-a-2-NB590] | – | – | – | – | – | – | NanoBRET Fold Response (CCR9; CCR9, 0.1μM tracer): 1.03; NanoBRET Fold Response (CCR9; CCR9, 1μM tracer): 1.05; NanoBRET Fold Response (P2RY13; P2RY13, 0.1μM tracer): 1.06; NanoBRET Fold Response (P2RY13; P2RY13, 1μM tracer): 0.94; NanoBRET Fold Response (TBXA2R; TBXA2R, 0.1μM tracer): 1.08; NanoBRET Fold Response (TBXA2R; TBXA2R, 1μM tracer): 1.08
CN(CCC=C1c2ccccc2CCc2ccccc21)C(=O)CCOCCOCCOCCOCCNC(=O)CCc1ccc2n1[B-](F)(F)[N+]1=C(c3ccc[nH]3)C=CC1=C2 [Amitriptyline-e-2-NB590] | – | – | – | – | – | – | NanoBRET Fold Response (CCR9; tracer at 1μM): 0.95
CN(C)CCC=C1c2ccccc2CCc2ccc(C(=O)NCCNC(=O)CCOCCOCCOCCOCCNC(=O)CCc3ccc4n3[B-](F)(F)[N+]3=C(c5ccc[nH]5)C=CC3=C4)cc21 [Amitriptyline-a-2-NB590] | – | – | – | – | – | – | NanoBRET Fold Response (CCR9; tracer at 0.1μM): 0.99; NanoBRET Fold Response (CCR9; tracer at 1μM): 1.05; NanoBRET Fold Response (P2RY13; tracer at 0.1μM): 1.09; NanoBRET Fold Response (P2RY13; tracer at 1μM): 0.85
